# Laboratory results as given in patent US20220306695A1, “COMPSTATIN ANALOGUES AND THEIR MEDICAL USES” (priority 2019, published 2022).
# Starred links: 1 amine or outer side, 2 acyl side, 3 side chain; linkers in the order of their positions; H or OH if unused. Positions of bridges follow the written chain, without caps; N, C: chain ends. Non-standard residues stand in square brackets, D forms with d. Residues, ends and D or L forms follow the SMILES beside them. Groups on a side chain read outwards from the residue. *: point of attachment. Trp(1-Me) = Cn1cc(C[C@H](N)C(=O)O)c2ccccc21; Abu(4-yl) = O=C([C@H](CC[*:3])N[*:1])[*:2]; C18 diacid = O=C(O)CCCCCCCCCCCCCCCCC(=O)*; C16 diacid = O=C(O)CCCCCCCCCCCCCCC(=O)*; γGlu = O=C(O)[C@H](CCC(=O)[*:2])N[*:1]; AEEA = NCCOCCOCC(=O)O; Aoc = NCCCCCCCC(=O)O; Sar = CNCC(=O)O
# System: classical complement pathway
# Test: In vitro haemolysis assay (inhibition of classical complement pathway)
# Format: cell-based, human
# Conditions: Table 3; human serum, sensitized sheep red blood cells; read-out: IC50[nM], in vitro analysis of inhibition of hemolysis
# Summary of the method: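 Serially diluted compound (9 points) was preincubated 15 min at room temperature with diluted human serum, titrated per batch to give 70-90% maximal haemolysis, in Tris/casein buffer pH 7.4 with Mg2+/Ca2+. Antibody-sensitized sheep erythrocytes were then added for 30 min at 37° C, and the reaction was stopped with EDTA. Haemolysis was read at A405, with IC50 from 4PL fit.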
row,Compound,IC50
1,"CC[C@H](C)[C@@H]1NC(=O)[C@@H](NC(=O)[C@H](Cc2ccccc2)NC(=O)[C@H](CCC(=O)O)NC(=O)CNC(C)=O)CSCC[C@@H](C(=O)N(C)CC(=O)N[C@@H](CCC(=O)O)C(=O)NCC(=O)N[C@@H](CCC(=O)O)C(=O)NCCOCCOCC(=O)N[C@@H](CCC(=O)O)C(=O)N[C@@H](CO)C(=O)N[C@@H](CCCCNC(=O)CC[C@H](NC(=O)CNC(=O)CC[C@H](NC(=O)CCCCCCCCCCCCCCCCC(=O)O)C(=O)O)C(=O)O)C(N)=O)NC(=O)[C@H](CCCNC(=N)N)NC(=O)[C@H](Cc2c[nH]cn2)NC(=O)[C@H](CCC(=O)O)NC(=O)CNC(=O)[C@H](Cc2c[nH]c3ccccc23)NC(=O)[C@H](CCC(=O)O)NC(=O)[C@H](CCC(N)=O)NC(=O)[C@H](Cc2cn(C)c3ccccc23)NC1=O [Compound 155, Ac-GEFA(1)I[1-Me-Trp]QEWGEHRhC(1)[Sar]EGE[Peg3]ES-K([17-carboxy-heptadecanoyl][γGlu]G[γGlu])-NH2] (Ac-GEFCI[Trp(1-Me)]QEWGEHR[Abu(4-yl)][Sar]EGE[AEEA]ESK([γGlu-Gly-γGlu-C18 diacid])-NH2; thioether 4-14)",< 100 nM
2,CC[C@H](C)[C@@H]1NC(=O)[C@@H](NC(=O)CN(C)C(C)=O)CSSC[C@@H](C(=O)N[C@H](C(N)=O)[C@@H](C)O)NC(=O)[C@H](CCCNC(=N)N)NC(=O)[C@H](Cc2c[nH]cn2)NC(=O)[C@H](CCC(=O)O)NC(=O)CNC(=O)[C@H](Cc2c[nH]c3ccccc23)NC(=O)[C@H](CC(=O)O)NC(=O)[C@H](CCC(N)=O)NC(=O)[C@H](Cc2c[nH]c3ccccc23)NC1=O [Compound 11] (Ac-[Sar]CIWQDWGEHRCT-NH2; disulfide 2-12),< 100 nM
3,CC[C@H](C)[C@@H]1NC(=O)[C@@H](NC(=O)[C@H](Cc2ccccc2)NC(=O)[C@H](CCC(=O)O)NC(=O)[C@H](CO)NC(C)=O)CSSC[C@@H](C(=O)N[C@H](C(=O)N[C@@H](CCC(=O)O)C(=O)NCC(=O)N[C@@H](CCC(=O)O)C(=O)NCCCCCCCC(=O)N[C@@H](CCC(=O)O)C(=O)N[C@@H](CCCCNC(=O)CC[C@H](NC(=O)CNC(=O)CC[C@H](NC(=O)CCCCCCCCCCCCCCCCC(=O)O)C(=O)O)C(=O)O)C(N)=O)[C@@H](C)O)NC(=O)[C@H](CCCNC(=N)N)NC(=O)[C@H](Cc2c[nH]cn2)NC(=O)[C@H](CCC(=O)O)NC(=O)CNC(=O)[C@H](Cc2c[nH]c3ccccc23)NC(=O)[C@H](CC(=O)O)NC(=O)[C@H](CCC(N)=O)NC(=O)[C@H](Cc2cn(C)c3ccccc23)NC1=O [Compound 137] (Ac-SEFCI[Trp(1-Me)]QDWGEHRCTEGE[Aoc]EK([γGlu-Gly-γGlu-C18 diacid])-NH2; disulfide 4-14),< 100 nM
4,CC[C@H](C)[C@H](NC(C)=O)C(=O)N[C@H]1CSSC[C@@H](C(=O)N[C@H](C(=O)N[C@@H](CCC(=O)O)C(=O)NCC(=O)N[C@@H](CCCCNC(=O)CC[C@H](NC(=O)CCCCCCCCCCCCCCC(=O)O)C(=O)O)C(N)=O)[C@@H](C)O)NC(=O)[C@H](CCCNC(=N)N)NC(=O)[C@H](Cc2c[nH]cn2)NC(=O)[C@H](CCC(=O)O)NC(=O)CNC(=O)[C@H](Cc2c[nH]c3ccccc23)NC(=O)[C@H](CC(=O)O)NC(=O)[C@H](CCC(N)=O)NC(=O)[C@H](Cc2c[nH]c3ccccc23)NC(=O)[C@H]([C@@H](C)CC)NC1=O [Compound 92] (Ac-ICIWQDWGEHRCTEGK([γGlu-C16 diacid])-NH2; disulfide 2-12),< 1000 nM
5,CC[C@H](C)[C@H](NC(C)=O)C(=O)N[C@H]1CSSC[C@@H](C(=O)N[C@H](C(=O)NCC(=O)N[C@@H](C)C(=O)N[C@@H](CCC(=O)O)C(=O)N[C@@H](CO)C(N)=O)[C@@H](C)O)NC(=O)[C@H](CCCNC(=N)N)NC(=O)[C@H](Cc2c[nH]cn2)NC(=O)[C@H](C)NC(=O)CNC(=O)[C@H](Cc2c[nH]c3ccccc23)NC(=O)[C@H](CC(=O)O)NC(=O)[C@H](CCC(N)=O)NC(=O)[C@H](Cc2c[nH]c3ccccc23)NC(=O)[C@H]([C@@H](C)CC)NC1=O [Compound 47] (Ac-ICIWQDWGAHRCTGAES-NH2; disulfide 2-12),< 100 nM
6,CC[C@H](C)[C@H](NC(C)=O)C(=O)N[C@H]1CSSC[C@@H](C(=O)N[C@H](C(=O)N[C@@H](CCC(=O)O)C(N)=O)[C@@H](C)O)NC(=O)[C@H](CCCNC(=N)N)NC(=O)[C@H](Cc2c[nH]cn2)NC(=O)[C@H](CCC(=O)O)NC(=O)CNC(=O)[C@H](Cc2c[nH]c3ccccc23)NC(=O)[C@H](CC(=O)O)NC(=O)[C@H](CCC(N)=O)NC(=O)[C@H](Cc2c[nH]c3ccccc23)NC(=O)[C@H]([C@@H](C)CC)NC1=O [Compound 26] (Ac-ICIWQDWGEHRCTE-NH2; disulfide 2-12),< 100 nM
7,CC[C@H](C)[C@@H]1NC(=O)[C@@H](NC(=O)[C@H](Cc2ccccc2)NC(C)=O)CSSC[C@@H](C(=O)N[C@H](C(N)=O)[C@@H](C)O)NC(=O)[C@H](CCCNC(=N)N)NC(=O)[C@H](Cc2c[nH]cn2)NC(=O)[C@H](CCC(=O)O)NC(=O)CNC(=O)[C@H](Cc2c[nH]c3ccccc23)NC(=O)[C@H](CC(=O)O)NC(=O)[C@H](CCC(N)=O)NC(=O)[C@H](Cc2c[nH]c3ccccc23)NC1=O [Compound 23] (Ac-FCIWQDWGEHRCT-NH2; disulfide 2-12),< 100 nM
8,CC[C@H](C)[C@H](NC(C)=O)C(=O)N[C@H]1CSSC[C@@H](C(=O)N(C)CC(N)=O)NC(=O)[C@H](CCCNC(=N)N)NC(=O)[C@H](Cc2c[nH]cn2)NC(=O)[C@H](CCC(=O)O)NC(=O)CNC(=O)[C@H](Cc2c[nH]c3ccccc23)NC(=O)[C@H](CC(=O)O)NC(=O)[C@H](CCC(N)=O)NC(=O)[C@H](Cc2c[nH]c3ccccc23)NC(=O)[C@H]([C@@H](C)CC)NC1=O [Compound 13] (Ac-ICIWQDWGEHRC[Sar]-NH2; disulfide 2-12),< 100 nM
9,CC[C@H](C)[C@@H]1NC(=O)[C@@H](NC(=O)[C@H](Cc2ccc(O)cc2)NC(=O)[C@H](CCC(=O)O)NC(=O)[C@H](CO)NC(C)=O)CSSC[C@@H](C(=O)N(C)CC(=O)N[C@@H](CCC(=O)O)C(=O)N[C@@H](C)C(N)=O)NC(=O)[C@H](CCCNC(=N)N)NC(=O)[C@H](Cc2c[nH]cn2)NC(=O)[C@H](CCC(=O)O)NC(=O)CNC(=O)[C@H](Cc2c[nH]c3ccccc23)NC(=O)[C@H](CC(=O)O)NC(=O)[C@H](CCC(N)=O)NC(=O)[C@H](Cc2cn(C)c3ccccc23)NC1=O [Compound 71] (Ac-SEYCI[Trp(1-Me)]QDWGEHRC[Sar]EA-NH2; disulfide 4-14),< 100 nM
10,CC[C@H](C)[C@@H]1NC(=O)[C@@H](NC(=O)[C@H](Cc2ccc(O)cc2)NC(=O)[C@H](C)NC(=O)[C@H](CO)NC(=O)CNC(=O)[C@H](CCC(=O)O)NC(C)=O)CSSC[C@@H](C(=O)N(C)CC(=O)N[C@@H](CCC(=O)O)C(=O)NCC(=O)N[C@@H](CCCCN)C(=O)N[C@@H](CCCCNC(=O)CC[C@H](NC(=O)CNC(=O)CC[C@H](NC(=O)CCCCCCCCCCCCCCCCC(=O)O)C(=O)O)C(=O)O)C(N)=O)NC(=O)[C@H](CCCNC(=N)N)NC(=O)[C@H](Cc2c[nH]cn2)NC(=O)[C@H](CCC(=O)O)NC(=O)CNC(=O)[C@H](Cc2c[nH]c3ccccc23)NC(=O)[C@H](CC(=O)O)NC(=O)[C@H](CCC(N)=O)NC(=O)[C@H](Cc2cn(C)c3ccccc23)NC1=O [Compound 110] (Ac-EGSAYCI[Trp(1-Me)]QDWGEHRC[Sar]EGKK([γGlu-Gly-γGlu-C18 diacid])-NH2; disulfide 6-16),< 250 nM
